Assay results as given in PMC11932959, “Sulfonamide‐Bearing Pyrazolone Derivatives as Multitarget Therapeutic Agents: Design, Synthesis, Characterization, Biological Evaluation, In Silico ADME/T Profiling and Molecular Docking Study” (Pharmacology Research & Perspectives, 2025).

What was measured:
Assay in all cases: biochemical
[1] = target: hCA I (Homo sapiens, UniProt P00915); assay type: biochemical; details: Lineweaver-Burk; for Ki: mean ± standard error, read-out: K I hCA I
Description: (§1) First, purification of hCA I and hCA II enzymes for this study followed a modified procedure derived from prior literature sources. To evaluate the inhibitory effects, the esterase activities of hCA isoforms were assessed using the p‐nitrophenylacetate substrate, which is converted by both isoforms to the p‐nitrophenolate ion, as described in our prior studies. The assessment of ChE activities involved a modified adaptation of the Ellman's method, incorporating acetylthiocholine iodide for AChE and […] for BChE as the respective substrates.
(§2) The inhibition effects of the novel sulfonamide‐bearing pyrazolone derivatives were determined with different inhibitor concentrations (at least five) against hCA isoenzymes and ChEs. The IC 50 of the derivatives was calculated from Activity (%)–[inhibitor] graphs for derivatives. The inhibition types and K I values were found by Lineweaver and Burk's curves. The data analysis and graph generation were performed using GraphPad Prism version 8 for Mac (GraphPad Software, La Jolla, California, USA). The goodness of fit for enzyme inhibition models was compared using the extra sum‐of‐squares F test and the AICc approach.

[2] = target: AChE (Homo sapiens, UniProt P22303); assay type: biochemical; details: Lineweaver-Burk; for Ki: mean ± standard error, read-out: K I AChE
Description: as §1, §2

[3] = target: hCA II (Homo sapiens, UniProt P00918); assay type: biochemical; details: Lineweaver-Burk; for Ki: mean ± standard error, read-out: K I hCA II
Description: as §1, §2

[4] = target: BChE (Homo sapiens, UniProt P06276); details: mean ± standard error; Lineweaver-Burk; read-out: K I BChE
Description: as §1, §2

Chain of hCA I (P00915 whole entry, canonical isoform): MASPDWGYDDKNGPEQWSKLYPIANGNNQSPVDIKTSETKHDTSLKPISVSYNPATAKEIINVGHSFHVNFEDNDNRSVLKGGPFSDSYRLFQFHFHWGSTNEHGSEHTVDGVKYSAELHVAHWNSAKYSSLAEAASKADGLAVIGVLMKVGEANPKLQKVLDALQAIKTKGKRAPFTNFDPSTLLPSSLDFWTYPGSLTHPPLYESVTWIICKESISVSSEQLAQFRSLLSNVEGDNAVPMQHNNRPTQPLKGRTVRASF
Chain of BChE (P06276 29-602, species assumed): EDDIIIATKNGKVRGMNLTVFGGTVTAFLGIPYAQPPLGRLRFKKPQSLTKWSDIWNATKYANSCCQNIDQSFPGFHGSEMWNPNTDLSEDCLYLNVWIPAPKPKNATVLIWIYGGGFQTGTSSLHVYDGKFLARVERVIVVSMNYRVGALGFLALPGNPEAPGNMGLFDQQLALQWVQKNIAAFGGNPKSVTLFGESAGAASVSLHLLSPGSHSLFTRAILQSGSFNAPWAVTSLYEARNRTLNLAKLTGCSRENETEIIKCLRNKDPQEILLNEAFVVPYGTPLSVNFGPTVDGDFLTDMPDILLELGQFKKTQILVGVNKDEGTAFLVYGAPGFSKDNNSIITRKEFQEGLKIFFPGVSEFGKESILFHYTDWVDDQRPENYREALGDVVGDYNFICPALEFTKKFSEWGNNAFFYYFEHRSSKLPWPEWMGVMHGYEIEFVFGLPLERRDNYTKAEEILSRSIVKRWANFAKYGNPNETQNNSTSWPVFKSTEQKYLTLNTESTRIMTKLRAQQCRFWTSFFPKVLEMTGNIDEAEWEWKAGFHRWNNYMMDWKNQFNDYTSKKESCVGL
Chain of AChE (P22303 32-614): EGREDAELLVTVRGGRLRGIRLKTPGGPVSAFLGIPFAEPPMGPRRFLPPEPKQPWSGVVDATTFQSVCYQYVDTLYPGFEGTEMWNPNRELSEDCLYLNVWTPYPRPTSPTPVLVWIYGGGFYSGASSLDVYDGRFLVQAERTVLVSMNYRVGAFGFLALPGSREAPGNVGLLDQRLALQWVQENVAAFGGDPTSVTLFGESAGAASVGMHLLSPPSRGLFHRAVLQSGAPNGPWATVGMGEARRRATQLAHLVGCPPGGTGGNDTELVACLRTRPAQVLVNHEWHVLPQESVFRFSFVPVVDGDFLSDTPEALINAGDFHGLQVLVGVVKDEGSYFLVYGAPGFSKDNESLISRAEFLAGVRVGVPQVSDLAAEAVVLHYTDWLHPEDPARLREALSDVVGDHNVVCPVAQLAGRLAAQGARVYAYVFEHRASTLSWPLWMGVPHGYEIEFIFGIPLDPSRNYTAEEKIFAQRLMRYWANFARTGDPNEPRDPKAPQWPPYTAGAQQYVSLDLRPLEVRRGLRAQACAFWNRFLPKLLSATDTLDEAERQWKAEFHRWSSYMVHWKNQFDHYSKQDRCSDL

With CC1=NN(C(=O)c2ccc(C)cc2)C(=O)C1/N=N/c1ccc(S(N)(=O)=O)cc1 (stereo not drawn) [1d, 4‐([3‐Methyl‐1‐(4‐Methylbenzoyl)‐5‐Oxo‐4,5‐Dihydro‐1H‐Pyrazol‐4‐Yl]Diazenyl) Benzenesulfonamide] the Ki [1] was 65.1 ± 3 nM, the Ki [2] was 16 ± 1.6 nM and the Ki [3] was 42.6 ± 2.92 nM. The Ki [4] was 64.6 ± 7.59 nM.

CC1=NN(C(=O)c2ccc(C)cc2)C(=O)C1N=Nc1cccc(S(N)(=O)=O)c1 (stereo not drawn) [2d, 3‐([3‐Methyl‐1‐(4‐Methylbenzoyl)‐5‐Oxo‐4,5‐Dihydro‐1H‐Pyrazol‐4‐Yl]Diazenyl) Benzenesulfonamide] was tested, and the “inhibition type hCA I” value [1] was “competitive”, the Ki [1] was 18 ± 2.86 nM and the Ki [2] was 15.8 ± 1.04 nM. For the same molecule, the Ki [3] was 36.2 ± 2.78 nM and the Ki [4] was 88.6 ± 12.9 nM.

With CC1=NN(C(=O)c2ccccc2)C(=O)C1/N=N/c1ccc(S(N)(=O)=O)cc1 (stereo not drawn) [1a, 4‐[(1‐Benzoyl‐3‐Methyl‐5‐Oxo‐4,5‐Dihydro‐1H‐Pyrazol‐4‐Yl)diazinyl] Benzenesulfonamide] the Ki [1] was 53.9 ± 5.03 nM, the Ki [2] was 11.2 ± 1.15 nM and the Ki [3] was 65.5 ± 5.42 nM. For the same molecule, the Ki [4] was 95.5 ± 5.78 nM.

With CC1=NN(C(=O)c2ccc(Br)cc2)C(=O)C1N=Nc1ccc(S(N)(=O)=O)cc1 (stereo not drawn) [1c, 4‐([1‐(4‐Bromobenzoyl)‐3‐Methyl‐5‐Oxo‐4,5‐Dihydro‐1H‐Pyrazol‐4‐Yl]Diazenyl) Benzenesulfonamide] the Ki [1] was 49.2 ± 4.27 nM, the Ki [2] was 9.47 ± 1.23 nM and the “inhibition type hCA II” value [3] was “non‐competitive”. The Ki [3] was 85.4 ± 6.6 nM and the Ki [4] was 34.8 ± 5.88 nM.

Work on COc1ccc(C(=O)N2N=C(C)C(/N=N/c3cccc(S(N)(=O)=O)c3)C2=O)cc1 (stereo not drawn) [2e, 3‐([1‐(4‐Methoxybenzoyl)‐3‐Methyl‐5‐Oxo‐4,5‐Dihydro‐1H‐Pyrazol‐4‐Yl]Diazenyl) Benzenesulfonamide] yielded a Ki [1] of 49 ± 6.25 nM, a Ki [2] of 13.5 ± 0.91 nM and a Ki [3] of 35.4 ± 1.94 nM. The Ki [4] was 93.8 ± 10.5 nM.

CC1=NN(C(=O)c2cccc(Cl)c2)C(=O)C1/N=N/c1ccc(S(N)(=O)=O)cc1 (stereo not drawn) [1f, 4‐([1‐(3‐Chlorobenzoyl)‐3‐Methyl‐5‐Oxo‐4,5‐Dihydro‐1H‐Pyrazol‐4‐Yl]Diazenyl) Benzenesulfonamide] was tested, and the Ki [1] was 66.8 ± 5.15 nM, the “inhibition type AChE” value [2] was “competitive” and the Ki [2] was 7.45 ± 0.98 nM. For the same molecule, the Ki [3] was 62.2 ± 4.19 nM and the Ki [4] was 58.2 ± 8.11 nM.

CC1=NN(C(=O)c2ccc(Cl)cc2)C(=O)C1/N=N/c1cccc(S(N)(=O)=O)c1 (stereo not drawn) [2b, 3‐([1‐(4‐Chlorobenzoyl)‐3‐Methyl‐5‐Oxo‐4,5‐Dihydro‐1H‐Pyrazol‐4‐Yl]Diazenyl) Benzenesulfonamide] was tested, and the Ki [1] was 37.1 ± 2.43 nM, the Ki [2] was 8.66 ± 0.93 nM and the “inhibition type hCA II” value [3] was “non‐competitive”. For the same molecule, the Ki [3] was 24.8 ± 1.57 nM and the Ki [4] was 76.4 ± 11.6 nM.

COc1ccc(C(=O)N2N=C(C)C(N=Nc3ccc(S(N)(=O)=O)cc3)C2=O)cc1 (stereo not drawn) [1e, 4‐([1‐(4‐Methoxybenzoyl)‐3‐Methyl‐5‐Oxo‐4,5‐Dihydro‐1H‐Pyrazol‐4‐Yl]Diazenyl) Benzenesulfonamide] was tested, and the “inhibition type hCA I” value [1] was “non‐competitive”, the Ki [1] was 75.5 ± 4.91 nM and the Ki [2] was 14 ± 1.49 nM. For the same molecule, the “inhibition type hCA II” value [3] was “competitive”, the Ki [3] was 63.7 ± 6.71 nM and the Ki [4] was 80.9 ± 9.41 nM.

In the case of CC1=NN(C(=O)c2ccc(Br)cc2)C(=O)C1/N=N/c1cccc(S(N)(=O)=O)c1 (stereo not drawn) [2c, 3‐([1‐(4‐Bromobenzoyl)‐3‐Methyl‐5‐Oxo‐4,5‐Dihydro‐1H‐Pyrazol‐4‐Yl]Diazenyl) Benzenesulfonamide], the Ki [1] is reported as 44.6 ± 2.84 nM, the Ki [2] is reported as 8.43 ± 1.42 nM and the Ki [3] is reported as 28.8 ± 2.51 nM. It also gave a Ki [4] of 96 ± 5.44 nM.

CC1=NN(C(=O)c2cccc(Cl)c2)C(=O)C1/N=N/c1cccc(S(N)(=O)=O)c1 (stereo not drawn) [2f, 3‐([1‐(3‐Chlorobenzoyl)‐3‐Methyl‐5‐Oxo‐4,5‐Dihydro‐1H‐Pyrazol‐4‐Yl]Diazenyl) Benzenesulfonamide] gave a Ki [1] of 37.7 ± 2.06 nM, a Ki [2] of 9.52 ± 0.86 nM and a Ki [3] of 33.3 ± 4.09 nM. It also gave a Ki [4] of 136 ± 17.4 nM.

CC1=NN(C(=O)c2ccccc2)C(=O)C1/N=N/c1cccc(S(N)(=O)=O)c1 (stereo not drawn) [2a, 3‐[(1‐Benzoyl‐3‐Methyl‐5‐Oxo‐4,5‐Dihydro‐1H‐Pyrazol‐4‐Yl)diazinyl] Benzenesulfonamide] gave a Ki [1] of 73.2 ± 7.17 nM, a Ki [2] of 10.5 ± 0.9 nM and a Ki [3] of 55.7 ± 4.14 nM. It also gave a Ki [4] of 98.3 ± 7.34 nM.

For CC1=NN(C(=O)c2ccc(Cl)cc2)C(=O)C1/N=N/c1ccc(S(N)(=O)=O)cc1 (stereo not drawn) [1b, 4‐([1‐(4‐Chlorobenzoyl)‐3‐Methyl‐5‐Oxo‐4,5‐Dihydro‐1H‐Pyrazol‐4‐Yl]Diazenyl) Benzenesulfonamide], the Ki [1] was 55.9 ± 3.29 nM, the Ki [2] was 13.3 ± 1.43 nM and the Ki [3] was 50.8 ± 3.36 nM. It also gave a Ki [4] of 73.3 ± 12.2 nM.
